Assays:
[1] = clinical pathology (serum clinical chemistry) in mice; format: in vivo; details: CD-1 mice, 20 mg/kg intravenously daily for 9 days, sera day 10
Description: 20-day-old CD-1 mice were divided into a vehicle control group (5 mice) and a treatment group (5 mice). Samples of glycopeptide antibiotics were administered at 20 mg/kg intravenously daily for 9 days.

[2] = anatomic pathology (histopathology of heart and kidney) in mice; format: in vivo; details: CD-1 mice, 20 mg/kg intravenously daily for 9 days, necropsy day 10, microscopic histopathology
Description: Samples of tissues from necropsied mice were formalin-fixed, paraffin-embedded, sectioned, stained with hematoxylin and eosin, and examined microscopically. Histopathologic findings were recorded. These findings were subjectively graded on a scale corresponding to slight, mild, moderate, marked and severe as compared to untreated controls.

[3] = tested on: Staphylococcus sp.; test: in vitro antibacterial evaluation, MIC by broth dilution; format: cell-based; details: broth dilution, 18 hours at 35° C.
In short: (§1)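 Broth dilution per NCCLS M7-A2 in Mueller-Hinton II medium, inoculum 5×10^5 CFU/mL, antibiotic range 64-0.06 μg/mL. MIC taken as lowest concentration inhibiting growth; Gram-positive panel includes recent clinical isolates resistant to methicillin, penicillin and/or vancomycin.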

[4] = tested on: Escherichia coli; test: as above; format: cell-based; details: 18 hours at 35° C.
In short: as §1

[5] = tested on: Streptococcus sp.; test: as above; format: cell-based; details: broth dilution, 18 hours at 35° C.
In short: as §1

[6] = tested on: Enterococcus sp.; test: as above; format: cell-based; details: broth dilution, 18 hours at 35° C.
In short: as §1

CC(c1ccccc1)C1NC(=O)CNC(=O)C(CO)NC(=O)C(C(O)C2CNC(=N)N2C2OC(CO)C(O)C(O)C2O)NC(=O)C(C(O)C2CNC(=N)N2)NC(=O)C(Cc2ccc(OC3OC(CO)C(OC4OC5COC(Cc6ccccc6)OC5C(O)C4O)C(O)C3O)cc2)NC1=O (stereo not drawn) [Example 102, Cyclo[glycyl-β-methylphenylalanyl-O-[4-O-(4,6-O-phenethylidenehexopyranosyl)-hexopyranosyl]tyrosyl-3-(2-iminoimidazolidin-4-yl)seryl-3-(3-hexopranosyl-2-iminoimidazolidin-4-yl)serylseryl]]
0.5 to 1 µg/mL: MIC Coagulase Negative Staphylococcus (GC 4548) [3] | MIC Coagulase Negative Staphylococcus (GC 4549) [3] | MIC Staphylococcus aureus (GC 4542) [3] | MIC Staphylococcus aureus (GC 4545) [3] | MIC Staphylococcus aureus-SMITH (GC 4543) [3] | MIC Staphylococcus haemolyticus (GC 4546) [3] | MIC Staphylococcus haemolyticus (GC 4546) ([3]; strain GC 4546) | MIC Coagulase Negative Staphylococcus (GC 4548) ([3]; strain GC 4548) | MIC Coagulase Negative Staphylococcus (GC 4549) ([3]; strain GC 4549) | MIC Staphylococcus aureus-SMITH (GC 4543) ([3]; strain SMITH GC 4543) | MIC Staphylococcus aureus (GC 4542) ([3]; strain GC 4542) | MIC Staphylococcus aureus (GC 4545) ([3]; strain GC 4545) | MIC Escherichia coli (GC 4560) ([4]; strain GC 4560)
0.5 µg/mL: MIC Coagulase Negative Staphylococcus (GC 6257) [3] | MIC Coagulase Negative Staphylococcus (GC 6257) ([3]; strain GC 6257)
1 µg/mL: MIC Coagulase Negative Staphylococcus (GC 4547) [3] | MIC Staphylococcus aureus (GC 3051) [3] | MIC Coagulase Negative Staphylococcus (GC 4547) ([3]; strain GC 4547) | MIC Staphylococcus aureus (GC 3051) ([3]; strain GC 3051)
16 to 32 µg/mL: MIC Escherichia coli (GC 4559) ([4]; strain GC 4559)
+340%: Clinical Chemistry (Day 10) % of Control, AST [1]
+672%: Clinical Chemistry (Day 10) % of Control, ALT [1]
16 to 64 µg/mL: MIC Escherichia coli (ATCC 25922) ([4]; strain ATCC 25922)
+249%: Clinical Chemistry (Day 10) % of Control, BUN [1]
+++: Anatomical Pathology (Day 10), Heart [2] | Anatomical Pathology (Day 10), Kidney [2]
<0.12 to 0.25 µg/mL: MIC Streptococcus agalactiae (GC 4564) ([5]; Streptococcus agalactiae (GC 4564)) | MIC Streptococcus pyogenes (GC 4563) ([5]; Streptococcus pyogenes (GC 4563)) | MIC Streptococcus pyogenes (GC 4563) ([5]; strain GC 4563) | MIC Streptococcus agalactiae (GC 4564) ([5]; strain GC 4564)
2 to 4 µg/mL: MIC Enterococcus avium (GC 4558) ([6]; Enterococcus avium (GC 4558)) | MIC Enterococcus faecalis (ATCC 29212) ([6]; Enterococcus faecalis (ATCC 29212)) | MIC Enterococcus faecalis (GC 2242) ([6]; Enterococcus faecalis (GC 2242)) | MIC Enterococcus faecalis (GC 2691) ([6]; Enterococcus faecalis (GC 2691)) | MIC Enterococcus faecalis (GC 3059) ([6]; Enterococcus faecalis (GC 3059)) | MIC Enterococcus faecalis (GC 4552) ([6]; Enterococcus faecalis (GC 4552)) | MIC Enterococcus faecalis (GC 4553) ([6]; Enterococcus faecalis (GC 4553)) | MIC Enterococcus faecalis (GC 4554) ([6]; Enterococcus faecalis (GC 4554)) | MIC Enterococcus faecalis (GC 6189) ([6]; Enterococcus faecalis (GC 6189)) | MIC Enterococcus faecium (GC 2243) ([6]; Enterococcus faecium (GC 2243)) | MIC Enterococcus faecium (GC 4556) ([6]; Enterococcus faecium (GC 4556)) | MIC Enterococcus faecalis (ATCC 29212) ([6]; strain ATCC 29212) | MIC Enterococcus faecalis (GC 2242) ([6]; strain GC 2242) | MIC Enterococcus faecium (GC 2243) ([6]; strain GC 2243) | MIC Enterococcus faecalis (GC 2691) ([6]; strain GC 2691) | MIC Enterococcus faecalis (GC 3059) ([6]; strain GC 3059) | MIC Enterococcus faecalis (GC 4552) ([6]; strain GC 4552) | MIC Enterococcus faecalis (GC 4553) ([6]; strain GC 4553) | MIC Enterococcus faecalis (GC 4554) ([6]; strain GC 4554) | MIC Enterococcus faecium (GC 4556) ([6]; strain GC 4556) | MIC Enterococcus avium (GC 4558) ([6]; strain GC 4558) | MIC Enterococcus faecalis (GC 6189) ([6]; strain GC 6189)
2 µg/mL: MIC Staphylococcus aureus (GC 1131) [3] | MIC Staphylococcus aureus (GC 1131) ([3]; strain GC 1131)
1 to 2 µg/mL: MIC Coagulase Negative Staphylococcus (GC 4551) [3] | MIC Staphylococcus aureus (ATCC 29213) [3] | MIC Staphylococcus aureus (GC 3053) [3] | MIC Staphylococcus aureus (GC 4541) [3] | MIC Staphylococcus aureus (GC 4544) [3] | MIC Coagulase Negative Staphylococcus (GC 4551) ([3]; strain GC 4551) | MIC Staphylococcus aureus (ATCC 29213) ([3]; strain ATCC 29213) | MIC Staphylococcus aureus (GC 3053) ([3]; strain GC 3053) | MIC Staphylococcus aureus (GC 4541) ([3]; strain GC 4541) | MIC Staphylococcus aureus (GC 4544) ([3]; strain GC 4544) | MIC Enterococcus faecium (GC 4557) ([6]; Enterococcus faecium (GC 4557)) | MIC Enterococcus faecium (GC 4557) ([6]; strain GC 4557)
+100%: Clinical Chemistry (Day 10) % of Control, Creatinine [1]
<0.06 µg/mL: MIC Streptococcus pneumoniae (ATCC 6301) ([5]; Streptococcus pneumoniae (ATCC 6301)) | MIC Streptococcus pneumoniae (GC 1894) ([5]; Streptococcus pneumoniae (GC 1894)) | MIC Streptococcus pneumoniae (ATCC 6301) ([5]; strain ATCC 6301) | MIC Streptococcus pneumoniae (GC 1894) ([5]; strain GC 1894)

Source: patent publication US6914045B2, “Glycopeptide antibiotics” (Wyeth Holdings Corporation, priority 2001, dated 2005)
